Measured values: patent US8884061B2, “Compositions and methods of use of electron transport system inhibitors” (priority 2006, dated 2014)
Converted amounts (≈) assume the structure as drawn. Like-named read-outs stand apart in the source and are kept apart here.

Tests used:
VRSA 2441-T0044 = experiment: MIC, other bacteria (Table 3); assay type: cell-based, S. aureus; conditions: VRSA 2441-T0044, low level VCM-resistant; inoculum size 10^6 CFU/ml
[1] = tested on: S. epidermidis ATCC 12228; experiment: MIC, other bacteria (Table 3); assay type: cell-based
MRSA 2441-05112 = experiment: MIC, other bacteria (Table 3); assay type: cell-based, S. aureus; conditions: inoculum size 10^6 CFU/ml
P. mirabilis ATCC 4630 = experiment: MIC, other bacteria (Table 3); assay type: cell-based
MRSE 2442-05110 = experiment: MIC, other bacteria (Table 3); assay type: cell-based, S. epidermidis; conditions: inoculum size 10^6 CFU/ml
[2] = tested on: E. faecium NCTC 12203 (VRE); experiment: MIC, other bacteria (Table 3); assay type: cell-based; conditions: high level VCM-resistant, Van A, inoculum size 10^6 CFU/ml
E. faecalis ATCC 29212 = experiment: MIC, other bacteria (Table 3); assay type: cell-based
E. coli ATCC 25922 = experiment: MIC, other bacteria (Table 3); assay type: cell-based
MRSE 2442-05030 = experiment: MIC, other bacteria (Table 3); assay type: cell-based, S. epidermidis; conditions: inoculum size 10^6 CFU/ml
MRSA 2441-05223 = experiment: MIC, other bacteria (Table 3); assay type: cell-based, S. aureus; conditions: inoculum size 10^6 CFU/ml
E. faecium ATCC 49224 = experiment: MIC, other bacteria (Table 3); assay type: cell-based; conditions: E. faecium ATCC 49224, GM-resistant, inoculum size 10^6 CFU/ml
S. marsascens ATCC 14756 = experiment: MIC, other bacteria (Table 3); assay type: cell-based; conditions: inoculum size 10^6 CFU/ml
[3] = tested on: E. faecalis NCTC 12201 (VRE); experiment: MIC, other bacteria (Table 3); assay type: cell-based; conditions: high level VCM-resistant, Van A, inoculum size 10^6 CFU/ml
MRSE 2442-05047 = experiment: MIC, other bacteria (Table 3); assay type: cell-based, S. epidermidis; conditions: inoculum size 10^6 CFU/ml
[4] = tested on: E. faecalis ATCC 51299 (VRE); experiment: MIC, other bacteria (Table 3); assay type: cell-based; conditions: low level VCM-resistant, Van B, inoculum size 10^6 CFU/ml
S. aureus ATCC 29213 = experiment: MIC, other bacteria (Table 3); assay type: cell-based
MRSE 2442-05118 = experiment: MIC, other bacteria (Table 3); assay type: cell-based, S. epidermidis; conditions: inoculum size 10^6 CFU/ml
K. pneumoniae ATCC 27736 = experiment: MIC, other bacteria (Table 3); assay type: cell-based
MRSE 2442-05060 = experiment: MIC, other bacteria (Table 3); assay type: cell-based, S. epidermidis; conditions: inoculum size 10^6 CFU/ml
P. aeruginosa ATCC 27853 = experiment: MIC, other bacteria (Table 3); assay type: cell-based
MRSE 2442-05053 = experiment: MIC, other bacteria (Table 3); assay type: cell-based, S. epidermidis; conditions: inoculum size 10^6 CFU/ml
MRSA 2441-05262 = experiment: MIC, other bacteria (Table 3); assay type: cell-based, S. aureus; conditions: inoculum size 10^6 CFU/ml
MRSA 2441-05129 = experiment: MIC, other bacteria (Table 3); assay type: cell-based, S. aureus; conditions: inoculum size 10^6 CFU/ml
[5] = tested on: S. aureus ATCC 43300 (MRSA); experiment: MIC, other bacteria (Table 3); assay type: cell-based; conditions: inoculum size 10^6 CFU/ml
MRSA 2441-05104 = experiment: MIC, other bacteria (Table 3); assay type: cell-based, S. aureus; conditions: inoculum size 10^6 CFU/ml
VRSA 2441-T0041 = experiment: MIC, other bacteria (Table 3); assay type: cell-based, S. aureus; conditions: VRSA 2441-T0041, low level VCM-resistant, inoculum size 10^6 CFU/ml
MRSA 2441-05254 = experiment: MIC, other bacteria (Table 3); assay type: cell-based, S. aureus; conditions: inoculum size 10^6 CFU/ml
M. tuberculosis H37Rv = experiment: MIC, agar (7H11) dilution method; assay type: cell-based; conditions: Mycobacterium tuberculosis, H37RV
[6] = tested on: M. intracellularae ATCC 15984; experiment: MIC, agar (7H11) dilution method; assay type: cell-based; conditions: read-out: Minimum inhibitory concentrations (MIC)
M. fortuitum NIHJ1615 = experiment: MIC, agar (7H11) dilution method; assay type: cell-based; conditions: Mycolicibacterium fortuitum, read-out: Minimum inhibitory concentrations (MIC)
M. tuberculosis Kurono = experiment: MIC, agar (7H11) dilution method; assay type: cell-based; conditions: Mycobacterium tuberculosis, read-out: Minimum inhibitory concentrations (MIC)
M. bovis BCG Tokyo = experiment: microbe, parasite or virus in culture; assay type: cell-based; conditions: Mycobacterium tuberculosis variant bovis BCG, BCG, read-out: Minimum inhibitory concentrations (MIC)
M. avium Flamingo = experiment: MIC, agar (7H11) dilution method; assay type: cell-based; conditions: Mycobacterium avium, read-out: Minimum inhibitory concentrations (MIC)
M. kansasii NIHJ1619 = experiment: MIC, agar (7H11) dilution method; assay type: cell-based; conditions: Mycobacterium kansasii, read-out: Minimum inhibitory concentrations (MIC)
M. aurum = experiment: MIC, agar (7H11) dilution method; assay type: cell-based; conditions: Mycolicibacterium aurum, read-out: Minimum inhibitory concentrations (MIC)
M. smegmatis Takeo = experiment: MIC, agar (7H11) dilution method; assay type: cell-based; conditions: Mycolicibacterium smegmatis, read-out: Minimum inhibitory concentrations (MIC)
[7] = Staphylococcus aureus, read-out: MIC
[8] = Staphylococcus epidermidis, read-out: MIC
[9] = Enterococcus faecalis, read-out: MIC

In the case of CN[C@H](CC(C)C)C(=O)N[C@H]1C(=O)N[C@@H](CC(N)=O)C(=O)N[C@H]2C(=O)N[C@H]3C(=O)N[C@H](C(=O)N[C@H](C(=O)O)c4cc(O)cc(O)c4-c4cc3ccc4O)[C@H](O)c3ccc(c(Cl)c3)Oc3cc2cc(c3O[C@@H]2O[C@H](CO)[C@@H](O)[C@H](O)[C@H]2O[C@H]2C[C@](C)(N)[C@H](O)[C@H](C)O2)Oc2ccc(cc2Cl)[C@H]1O [VCM, reference compound], the “MIC” value (VRSA 2441-T0044) is reported as 6.25 µg/mL (≈ 4.31 µM), the “MIC” value ([1]; inoculum size 10^6 CFU/ml) is reported as 1.56 µg/mL (≈ 1.08 µM) and the “MIC” value (MRSA 2441-05112) is reported as 0.78 µg/mL (≈ 0.538 µM). The “MIC” value (P. mirabilis ATCC 4630; inoculum size 10^6 CFU/ml) was greater than 100 µg/mL, the “MIC” value (MRSE 2442-05110) was 1.56 µg/mL (≈ 1.08 µM) and the “MIC” value [2] was greater than 100 µg/mL. For the same compound, the “MIC” value (E. faecalis ATCC 29212; inoculum size 10^6 CFU/ml) was 3.13 µg/mL (≈ 2.16 µM), the “MIC” value (E. coli ATCC 25922; inoculum size 10^6 CFU/ml) was greater than 100 µg/mL and the “MIC” value (MRSE 2442-05030) was 3.13 µg/mL (≈ 2.16 µM). The “MIC” value (MRSA 2441-05223) was 0.78 µg/mL (≈ 0.538 µM), the “MIC” value (E. faecium ATCC 49224) was 3.13 µg/mL (≈ 2.16 µM) and the “MIC” value (S. marsascens ATCC 14756) was greater than 100 µg/mL. The “MIC” value [3] was greater than 100 µg/mL, the “MIC” value (MRSE 2442-05047) was 1.56 µg/mL (≈ 1.08 µM) and the “MIC” value [4] was 1.25 µg/mL (≈ 0.863 µM). The “MIC” value (S. aureus ATCC 29213; inoculum size 10^6 CFU/ml) was 0.78 µg/mL (≈ 0.538 µM), the “MIC” value (MRSE 2442-05118) was 1.56 µg/mL (≈ 1.08 µM) and the “MIC” value (K. pneumoniae ATCC 27736; inoculum size 10^6 CFU/ml) was greater than 100 µg/mL. For the same compound, the “MIC” value (MRSE 2442-05060) was 1.56 µg/mL (≈ 1.08 µM), the “MIC” value (P. aeruginosa ATCC 27853; inoculum size 10^6 CFU/ml) was greater than 100 µg/mL and the “MIC” value (MRSE 2442-05053) was 1.56 µg/mL (≈ 1.08 µM). For the same compound, the “MIC” value (MRSA 2441-05262) was 0.78 µg/mL (≈ 0.538 µM), the “MIC” value (MRSA 2441-05129) was 0.78 µg/mL (≈ 0.538 µM) and the “MIC” value [5] was 0.78 µg/mL (≈ 0.538 µM). For the same compound, the “MIC” value (MRSA 2441-05104) was 0.78 µg/mL (≈ 0.538 µM), the “MIC” value (VRSA 2441-T0041) was 3.13 µg/mL (≈ 2.16 µM) and the “MIC” value (MRSA 2441-05254) was 1.56 µg/mL (≈ 1.08 µM).

Compound C=CCN(C)CCCCCCCCOc1ccc(C(=O)c2ccc(Cl)cc2)c(O)c1 [Cpd #22, (4-(8-(allyl(methyl)amino)octyloxy)-2-hydroxyphenyl)(4-chlorophenyl)methanone] has an MIC ([1]; Staphylococcus epidermidis, ATCC12228, inoculum size 10^6 CFU/ml, read-out: MIC) of 12.5 µg/mL (≈ 29.1 µM), an MIC (MRSA 2441-05112; [7]) of 25 µg/mL (≈ 58.1 µM) and an MIC (M. tuberculosis H37Rv; read-out: Minimum inhibitory concentrations (MIC), M. tuberculosis H37Rv, table line r7 (1st of 5 so labelled)) of 1.56 µg/mL (≈ 3.63 µM). The MIC (M. tuberculosis H37Rv; read-out: Minimum inhibitory concentrations (MIC), M. tuberculosis H37Rv, table line r8 (2nd of 5 so labelled)) was 1.56 µg/mL (≈ 3.63 µM), the MIC (M. tuberculosis H37Rv; read-out: Minimum inhibitory concentrations (MIC), M. tuberculosis H37Rv, table line r9 (3rd of 5 so labelled)) was 1.56 µg/mL (≈ 3.63 µM) and the MIC (M. tuberculosis H37Rv; read-out: Minimum inhibitory concentrations (MIC), M. tuberculosis H37Rv, table line r10 (4th of 5 so labelled)) was 1.56 µg/mL (≈ 3.63 µM). It also gave an MIC (M. tuberculosis H37Rv; read-out: Minimum inhibitory concentrations (MIC), M. tuberculosis H37Rv, table line r11 (5th of 5 so labelled)) of 3.13 µg/mL (≈ 7.28 µM), an MIC [6] of 6.25 µg/mL (≈ 14.5 µM) and an MIC (P. mirabilis ATCC 4630; Proteus mirabilis, ATCC4630, inoculum size 10^6 CFU/ml, read-out: MIC) greater than 100 µg/mL. For the same compound, the MIC (MRSE 2442-05110; [8]) was 12.5 µg/mL (≈ 29.1 µM), the MIC ([2]; Enterococcus faecium, read-out: MIC) was 6.25 µg/mL (≈ 14.5 µM) and the MIC (M. fortuitum NIHJ1615) was 12.5 µg/mL (≈ 29.1 µM). The MIC (E. faecalis ATCC 29212; Enterococcus faecalis, ATCC29212, inoculum size 10^6 CFU/ml, read-out: MIC) was 12.5 µg/mL (≈ 29.1 µM), the MIC (E. coli ATCC 25922; Escherichia coli, ATCC25922, inoculum size 10^6 CFU/ml, read-out: MIC) was 50 µg/mL (≈ 116 µM) and the MIC (M. tuberculosis Kurono) was 1.56 µg/mL (≈ 3.63 µM). It also gave an MIC (MRSE 2442-05030; [8]) of 12.5 µg/mL (≈ 29.1 µM), an MIC (M. bovis BCG Tokyo) of 3.13 µg/mL (≈ 7.28 µM) and an MIC (M. avium Flamingo) of 6.25 µg/mL (≈ 14.5 µM). The MIC (M. kansasii NIHJ1619) was 6.25 µg/mL (≈ 14.5 µM), the MIC (MRSA 2441-05223; [7]) was 25 µg/mL (≈ 58.1 µM) and the MIC (E. faecium ATCC 49224; Enterococcus faecium, ATCC49224, read-out: MIC) was 12.5 µg/mL (≈ 29.1 µM). The MIC (S. marsascens ATCC 14756; read-out: MIC) was greater than 100 µg/mL, the MIC (M. aurum) was 6.25 µg/mL (≈ 14.5 µM) and the MIC [3, 9] was 12.5 µg/mL (≈ 29.1 µM). It also gave an MIC (MRSE 2442-05047; [8]) of 12.5 µg/mL (≈ 29.1 µM), an MIC [4, 9] of 12.5 µg/mL (≈ 29.1 µM) and an MIC (S. aureus ATCC 29213; Staphylococcus aureus, ATCC29213, inoculum size 10^6 CFU/ml, read-out: MIC) of 25 µg/mL (≈ 58.1 µM). It also gave an MIC (MRSE 2442-05118; [8]) of 12.5 µg/mL (≈ 29.1 µM), an MIC (K. pneumoniae ATCC 27736; Klebsiella pneumoniae, ATCC27736, inoculum size 10^6 CFU/ml, read-out: MIC) greater than 100 µg/mL and an MIC (MRSE 2442-05060; [8]) of 12.5 µg/mL (≈ 29.1 µM). For the same compound, the MIC (M. smegmatis Takeo) was 12.5 µg/mL (≈ 29.1 µM), the MIC (P. aeruginosa ATCC 27853; Pseudomonas aeruginosa, ATCC27853, inoculum size 10^6 CFU/ml, read-out: MIC) was greater than 100 µg/mL and the MIC (MRSE 2442-05053; [8]) was 12.5 µg/mL (≈ 29.1 µM). The MIC (MRSA 2441-05262; [7]) was 25 µg/mL (≈ 58.1 µM), the MIC (MRSA 2441-05129; [7]) was 50 µg/mL (≈ 116 µM) and the MIC [5, 7] was 25 µg/mL (≈ 58.1 µM). For the same compound, the MIC (MRSA 2441-05104; [7]) was 25 µg/mL (≈ 58.1 µM), the MIC (VRSA 2441-T0041; [7]) was 25 µg/mL (≈ 58.1 µM) and the MIC (MRSA 2441-05254; [7]) was 50 µg/mL (≈ 116 µM).
